How the values were obtained:
Type in all cases: cell-based
[1] = test system: protoplasts isolated from roots of Arabidopsis thaliana Col-0; test: [ROS]intra burst in root protoplasts, DCFH-DA; conditions: 10 µM, fold increase in fluorescence at 5 min; n = 12 from three independent experiments; Figure 2D
Method: Two-week-old Arabidopsis thaliana seedling roots (from 27 mg seeds) were collected and were cut into 1–2 mm segments and incubated in a protoplasting solution (20 mM MES pH 5.7, 0.4 M mannitol, 20 mM KCl, 10 mM CaCl2, 0.1% (w/v) BSA, 1.5% (w/v) cellulase R10 (Duchefa Biochemie, Haarlem, The Netherlands), 0.4% (w/v) macerozyme R10 (Duchefa Chimie)) for 3 h at room temperature and in the dark. After incubation, 1 mL of solution A (154 mM NaCl, 5 mM KCl, 125 mM CaCl2, 4 mM MES, pH = 5.7) was added inside. The suspension was agitated gently and filtered by a 70 µm pore filter to remove extra root debris. Filtered suspension was centrifuged at 850 g for 6 min at room temperature, and the pelleted protoplasts were rinsed three times with solution B (4 mM MES pH 5.7, 154 mM NaCl, 125 mM CaCl2, 5 mM KCl) before being resuspended in solution C (2 mM MES pH 5.7, 0.5 M mannitol, 20 mM KCl, 2 mM CaCl2) at a working concentration of 1–2 × 10^5 cells per mL. For [ROS]intra measurements in protoplasts, protoplasts isolated from roots of Arabidopsis thaliana Col-0 plants were incubated for 10 min with 5 µM of DCFH-DA. Then, wells of black 96-well microplates (96 Flat Black-Greiner Bio-One^TM CellStar^TM, Fischer Scientific) were loaded with 150 µL of protoplasts solution per well. After the addition of 50 µL of four-times-concentrated treatment, the fluorescence was recorded every minute using a microplate reader with an excitation filter at 485 ± 20 nm and emission filter at 535 ± 25 nm. The data were processed as for the roots.

[2] = test system: Arabidopsis thaliana Col-0 root protoplasts; test: Calcium influx ([Ca2+]cyt) in root protoplasts, Fluo-4 AM probe; conditions: 10 µM, Fluo-4 normalized fluorescence (F/F0), within first 30 min; n = 6; Figure 4A,B
Method: Two-week-old Arabidopsis thaliana seedling roots (from 27 mg seeds) were collected and were cut into 1–2 mm segments and incubated in a protoplasting solution (20 mM MES pH 5.7, 0.4 M mannitol, 20 mM KCl, 10 mM CaCl2, 0.1% (w/v) BSA, 1.5% (w/v) cellulase R10 (Duchefa Biochemie, Haarlem, The Netherlands), 0.4% (w/v) macerozyme R10 (Duchefa Chimie)) for 3 h at room temperature and in the dark. After incubation, 1 mL of solution A (154 mM NaCl, 5 mM KCl, 125 mM CaCl2, 4 mM MES, pH = 5.7) was added inside. The suspension was agitated gently and filtered by a 70 µm pore filter to remove extra root debris. Filtered suspension was centrifuged at 850 g for 6 min at room temperature, and the pelleted protoplasts were rinsed three times with solution B (4 mM MES pH 5.7, 154 mM NaCl, 125 mM CaCl2, 5 mM KCl) before being resuspended in solution C (2 mM MES pH 5.7, 0.5 M mannitol, 20 mM KCl, 2 mM CaCl2) at a working concentration of 1–2 × 10^5 cells per mL. Calcium measurements were also performed on protoplasts with the Fluo-4 AM probe. Protoplasts isolated from roots of Arabidopsis thaliana Col-0 were incubated for 1 h with 5 µM of Fluo-4 AM (Thermo Fisher Scientific, Hampton, VA, USA) (from a 5 mM stock solution in DMSO). The suspension was then centrifuged at 750 g, and the supernatant was discarded to eliminate the remaining free fluo-4 AM. The protoplasts were resuspended in fresh solution C and were incubated for 1 h. Microplates (96 Flat Black-Greiner Bio-One^TM CellStar^TM, Fischer Scientific) were loaded with 150 µL of protoplast solution per well. After the addition of 50 µL of 4-times-concentrated treatment, the fluorescence was recorded every 15 s using a Spark® microplate reader (Tecan, Männedorf, Switzerland) with an excitation filter at 485 ± 20 nm and an emission filter at 535 ± 25 nm. The values obtained were then converted as normalized fluorescence increase (F/F0) by dividing the fluorescence measured at each time point (F) by the fluorescence measured at the first time point (F0).

[3] = test system: Arabidopsis thaliana root protoplasts; test: NO burst in root protoplasts, DAF-DA probe; conditions: 10 µM, fold change at 20 min vs mock; n = 12; Figure 3C; in roots Srf and Liche increased NO, Pumi had no impact
Method: Two-week-old Arabidopsis thaliana seedling roots (from 27 mg seeds) were collected and were cut into 1–2 mm segments and incubated in a protoplasting solution (20 mM MES pH 5.7, 0.4 M mannitol, 20 mM KCl, 10 mM CaCl2, 0.1% (w/v) BSA, 1.5% (w/v) cellulase R10 (Duchefa Biochemie, Haarlem, The Netherlands), 0.4% (w/v) macerozyme R10 (Duchefa Chimie)) for 3 h at room temperature and in the dark. After incubation, 1 mL of solution A (154 mM NaCl, 5 mM KCl, 125 mM CaCl2, 4 mM MES, pH = 5.7) was added inside. The suspension was agitated gently and filtered by a 70 µm pore filter to remove extra root debris. Filtered suspension was centrifuged at 850 g for 6 min at room temperature, and the pelleted protoplasts were rinsed three times with solution B (4 mM MES pH 5.7, 154 mM NaCl, 125 mM CaCl2, 5 mM KCl) before being resuspended in solution C (2 mM MES pH 5.7, 0.5 M mannitol, 20 mM KCl, 2 mM CaCl2) at a working concentration of 1–2 × 10^5 cells per mL. For the detection of intracellular NO, roots were processed as described above and 200 µL sterile water was replaced by 200 µL 5 μM DAF-DA in a buffered solution (10 mM Tris/HCl, pH = 7.4). Roots were incubated at room temperature for 1 h in the absence of light and then washed 3 times with Tris/HCl (10 mM, pH = 7.4). The fluorescence emitted by DAF-DA was detected by excitation at 495 nm and emission at 515 nm. Experiments where NO was measured after pretreatment with the calcium channel blocker or calcium chelator included an additional step where LaCl3 (10 mM; Merck Chemicals SA, Hoeilaart, Belgium) or EGTA (1 mM; Merck Chemicals SA, Hoeilaart, Belgium) was added three minutes before treatments. Data were processed as described above for ROS. For NO measurements in protoplasts, the suspension was incubated in the same conditions before being distributed (50 µL) in microplate wells and treated with the CLPs at a 10 µM final concentration or with 0.1% DMSO as a mock.

Substance	[ROS]intra burst in root protoplasts vs mock [1]	[Ca2+]cyt increase in root protoplasts [2]	NO burst in root protoplasts, trend compared to roots [3]
lichenysin	significant boosting activity	fast increase in [Ca^2+]cyt	very similar trend
pumilacidin	not active	not significant	very similar trend
surfactin [Srf]	significant boosting activity	fast increase in [Ca^2+]cyt	very similar trend
